Test results published in patent publication US20250295577A1, “EXTRACT OF YOUNG FLOWERS AND COSMETIC USES” (SOCIETE INDUSTRIELLE LIMOUSINE D'APPLICATION BIOLOGIQUE, priority 2021, published 2025).

Tested on: human fibroblasts derived from older donors
Assay: Cell migration of human fibroblasts (wound, crystal violet, occupied surface)
Assay type: cell-based
Conditions: for Cell migration: vs older control (Table 5)
Procedure: Cell migration is the ability of certain cells to move. In vitro, it is evaluated by the number of cells covering a surface that is initially empty (Kim et al., 2015; Lampugnani, 1999). The migratory capacity of the cells is reduced with age (Boulter et al., 2013).
Their action was studied on a human fibroblast culture derived from older donors.
On D0, the human fibroblasts are seeded and incubated at 37° C.
After several days of culture, the insert is removed from the culture chamber, creating a wound. The cells are treated with an active ingredient according to the invention or the red flower extract or a solution of N-(1-deoxy-1-fructosyl)-proline then incubated at 37° C.
After several days of culture, the cells are stained with a crystal violet solution at 0.5% (M/V). The viewing is done with an AxioCam MRc camera with microscope coupled to an image analysis system.
The surface ratio occupied by the cells is calculated automatically using software.

SMILES: O=C(CN1CCCC1C(=O)O)C(O)C(O)C(O)CO (stereo not shown) [N-(1-deoxy-1-fructosyl)-proline]
- Occupied surface ratio (1.5 ppm (Table 5)): 0.266 UA
- Cell migration (1.5 ppm): 0%
- Occupied surface ratio (5 ppm (Table 5)): 0.328 UA
- Cell migration (5 ppm): +19%
